The results in this text go back to patent EP4360456A1, “PHYTOSANITARY FORMULATION” (Universidad de Almeria, priority 2021, dated 2022).

The inhibition is how much of the control response was suppressed.

The test system of this test is fungus F. oxysporum. The test is described as follows: microbe, parasite or virus in culture. Type of test: cell-based. The settings on record: for inhibition at 2000 µg/mL / inhibition at 5000 µg/mL / inhibition at 7500 µg/mL / inhibition at 10000 µg/mL: Fusarium oxysporum. Here is the method:
The % of inhibition is calculated with respect to the control based on the areas of growth of the fungus according to the following equation: % of inhibition with respect to FOM = 100−((AP)/(AC)*100) [formula] wherein: • AP: area of growth of the fungus in the target dish. • AC: Area of growth of the fungus in the control dish.

[1] abbreviates: Concentration 2 g/L, Table 4 concentration screening, read-out: Percentages of inhibition.
Where [2] appears, read: Concentration 5 g/L, Table 4 concentration screening, read-out: Percentages of inhibition.
Setting [3] is: Concentration 7.5 g/L, Table 4 concentration screening, read-out: Percentages of inhibition.
Setting [4] is: Concentration 10 g/L, Table 4 concentration screening, read-out: Percentages of inhibition.
[5] abbreviates: solution at 5 g/L, Table 3, read-out: % of inhibition.

Like-named read-outs stand apart in the source and are kept apart here.

Regarding `C[C@H](N)C(=O)O` [Alanine, L-Alanine], the inhibition at 2000 µg/mL under setting [1] was found to be 9.24 ± 0.85%. Besides, the inhibition at 5000 µg/mL under setting [2] amounted to 9.48 ± 1.06% and the inhibition at 5000 µg/mL under setting [5] is 9.23 ± 0.71%. For the same compound, under setting [3], the inhibition at 7500 µg/mL came out at 13.3 ± 1.01%. Besides, under setting [4], the inhibition at 10000 µg/mL is 14.4 ± 0.87%.
Regarding `N.O=CO` [Ammonium formate], the “% of inhibition” value (solution at 5 g/L, Table 3) is 1.54 ± 0.15%.
Turning to `CCO` [Ethanol], for the setting “read-out: % of inhibition”, the inhibition at 5000 µg/mL stood at 3.07 ± 0.45%.
As for `OCC(O)CO` [Glycerol], under setting [5], the inhibition at 5000 µg/mL came to 1.85 ± 0.1%.
Consider `N[C@@H](Cc1ccccc1)C(=O)O` [Phenylalanine, L-Phenylalanine], for which the inhibition at 2000 µg/mL under setting [1] is 17 ± 2.24%. Also, the inhibition at 5000 µg/mL is, setting by setting: under setting [2], 19.5 ± 1.85%; under setting [5], 16.1 ± 1.05%. For the same compound, the inhibition at 7500 µg/mL under setting [3] worked out at 19.2 ± 1.65%. Further, under setting [4], the inhibition at 10000 µg/mL came to 21.7 ± 1.74%.
With `CC(=O)O` [Sodium acetate, Anhydrous sodium acetate], the inhibition at 5000 µg/mL (read-out: % of inhibition) turned out to be 1.54 ± 0.05%.
`O=C[O-].[Na+]` [Sodium formate]: the Percentages of inhibition (Concentration 2 g/L, Table 4 concentration screening) turned out to be 5.66 ± 0.41; the Percentages of inhibition (Concentration 5 g/L, Table 4 concentration screening) came to 12.33 ± 0.98; the Percentages of inhibition (Concentration 7.5 g/L, Table 4 concentration screening) stood at 12.54 ± 1.54; the Percentages of inhibition (Concentration 10 g/L, Table 4 concentration screening) is 12.14 ±0.52. Further, the “% of inhibition” value (solution at 5 g/L, Table 3) is recorded as 13.38 ± 0.95%.
